According to PubChem BioAssay (NCI):
Several values for one entry are separate records, joined by “and”; a condition that tells them apart may be missing. Equal entries are not always repeated.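 Compound exposure: 48 hours, 5 concentrations, 96-well plates. GI50 is the concentration that inhibits growth by half. TGI: total growth inhibition.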

Experiments:
Experiment in all cases: NCI tumour cell line growth inhibition, 48 h
DMS 273 small cell lung = test system: DMS 273 small cell lung
DLD-1 colon = test system: DLD-1 colon
M19-MEL melanoma = test system: M19-MEL melanoma
SNB-78 CNS = test system: SNB-78 CNS
HOP-18 NSCLC = test system: HOP-18 NSCLC
KM20L2 colon = test system: KM20L2 colon
RXF-631 renal = test system: RXF-631 renal
XF 498 CNS = test system: XF 498 CNS
MDA-N = test system: MDA-N

Row | Structure (SMILES) | TGI (DMS 273 small cell lung) | TGI (DLD-1 colon) | TGI (M19-MEL melanoma) | TGI (SNB-78 CNS) | TGI (HOP-18 NSCLC) | TGI (KM20L2 colon) | TGI (RXF-631 renal) | TGI (XF 498 CNS) | GI50 (DMS 273 small cell lung) | GI50 (HOP-18 NSCLC) | GI50 (RXF-631 renal) | TGI (MDA-N) | GI50 (MDA-N)
1 | CC(/C=C/C(=O)c1sc(C(N)=S)nc1C)=C\c1ccccc1 | 45.5 µM | 57.4 µM | > 100 µM | > 100 µM | > 100 µM | > 100 µM | > 100 µM | > 100 µM | – | – | – | – | –
2 | O=C1C(Cl)=C(Cl)C(=O)N1c1ccc(Cl)c(Cl)c1Cl | > 100 µM | > 100 µM | > 100 µM | > 100 µM | > 100 µM | > 100 µM | > 100 µM | – | – | – | – | – | –
3 | COC(=O)/C(C#N)=C1\CCC(OC)N1C (centres undefined) | > 100 µM | > 100 µM | > 100 µM | > 100 µM | > 100 µM | > 100 µM | – | > 100 µM | – | – | – | – | –
4 | Cc1ccc(SSCC(O)C(O)CSSc2ccc(C)cc2)cc1 (centres undefined) | 14.9 µM and 22.5 µM | 32.1 µM and 30 µM | 25.5 µM and 36.9 µM | 52.6 µM | 31.9 µM and 53.6 µM | 24.2 µM and 26.6 µM | 22.2 µM and 15.7 µM | 26.7 µM and 31.4 µM | 4.26 µM and 10.5 µM | 13.5 µM and 27.2 µM | 10.1 µM and 3.4 µM | – | –
5 | COC(=O)c1onc(C2OC(C)(C)OC2C(O)COC(c2ccccc2)(c2ccccc2)c2ccccc2)c1C(=O)OC (centres undefined) | – | – | – | – | – | – | – | – | – | – | – | > 100 µM | –
6 | Cc1ccc2oc(=O)c3c(O)c4cccc(OC5OC(C)C6O[C@@H](c7ccccc7)OC6C5OC5OC(C)C(O)C(O)C5O)c4c4oc(=O)c1c2c34 (some centres undefined) | 1.09 µM | 6.08 µM | 3.43 µM | 5.23 µM | 19.4 µM | 4.08 µM | 4.4 µM | 2.05 µM | – | – | – | 1.72 µM | –
7 | COc1cc2c(cc1OC)C(C(CBr)CBr)N(C1CCCC1)CC2 (centres undefined) | > 100 µM | > 100 µM | > 100 µM | – | – | – | – | > 100 µM | – | – | – | – | –
8 | CCCCCCC(=O)C/C(CCC(=O)N(Cc1ccccc1)Cc1ccccc1)=N\NC(N)=O | > 100 µM | – | > 100 µM | > 100 µM | > 100 µM | > 100 µM | > 100 µM | > 100 µM | – | – | – | – | –
9 | CCc1ccc2oc(=O)ccc2c1 | – | – | – | – | – | – | – | – | – | – | – | > 100 µM | –
10 | CCC[CH2][Sn]([CH2]CCC)([CH2]CCC)/[C](=C/[Si](C)(C)c1ccccc1)c1ccc2c(c1)OCO2 | – | – | – | – | – | – | – | – | – | – | – | 40.3 µM | 19.5 µM
11 | Cc1ccc(N2C(=O)/C(=C/c3ccc(N(CCC#N)CCC#N)cc3)N=C2COc2ccc(Cl)cc2Cl)cc1 | – | > 100 µM | – | > 100 µM | > 100 µM | > 100 µM | > 100 µM | > 100 µM | – | – | – | – | –
12 | O=c1c2ccccc2oc2ccccc12 (tested in a mixture with another compound) | > 100 µM | 7.75 µM | – | – | – | – | – | – | – | – | – | – | –
13 | C1CSC[C@H]2COC[C@@H](CSCCS1)S2 | – | – | – | – | – | – | – | – | – | – | – | > 100 µM | –
14 | CN1CCN=C1c1nnn(-c2ccc([N+](=O)[O-])cc2)c1-c1ccccc1 | > 100 µM | > 100 µM | > 100 µM | > 100 µM | > 100 µM | > 100 µM | – | > 100 µM | – | – | – | – | –
15 | C=CCC12CC(=O)CCC1c1ccc(OC)cc1C2=O (centres undefined) | > 100 µM | > 100 µM | > 100 µM | > 100 µM | > 100 µM | > 100 µM | – | – | – | – | – | – | –
16 | Cc1ccccc1-n1c(=S)[nH]c2c(sc(=O)n2-c2ccccc2C)c1=O | > 100 µM | > 100 µM | > 100 µM | > 100 µM | > 100 µM | > 100 µM | > 100 µM | – | – | – | – | – | –
17 | O=c1cc[nH]cc1-c1c[nH]ccc1=O | > 100 µM | > 100 µM | > 100 µM | > 100 µM | > 100 µM | – | – | – | – | – | – | – | –
18 | CC(C)C1(NC(=O)C2CC3c4cccc5[nH]cc(c45)CC3N(C)C2)OC2(O)C3CCCN3C(=O)C(Cc3ccccc3)N2C1=O (centres undefined) | – | – | – | – | – | – | – | – | – | – | – | > 100 µM | –
19 | CCC1CCCCN1CC(C(C)=O)C(c1ccccc1)c1c(O)c2ccccc2oc1=O (centres undefined) | > 100 µM | > 100 µM | > 100 µM | > 100 µM | – | > 100 µM | > 100 µM | > 100 µM | – | – | – | – | –
